These results are taken from paper PMC11124394, “Novel Combretastatin A-4 Analogs—Design, Synthesis, and Antiproliferative and Anti-Tubulin Activity” (Molecules, 2024).

Usually IC50 stands for the concentration at which inhibition is half-maximal.

Data set [1] relates to SW480 (primary colon cancer) cells. Kind of data set: SRB cytotoxicity assay, SW480. To be noted: Homo sapiens, SW480; SRB assay, 48 h culture, mean ± SD, at least three independent experiments; compounds marked * : low solubility, real values might be lower; read-out: Cytotoxicity IC50, SW480. Type of data set: cell-based. The protocol: (§1) The antiproliferative activity was tested on human primary (SW480) and metastatic (SW620) colon cancer, human prostate cancer (PC3), human liver cancer (HepG2), human breast cancer (MDA), human lung cancer (A549), and human immortalized keratinocyte (HaCaT) cell lines obtained from the American Type Culture Collection (ATCC, Rockville, MD, USA). The cells were cultured in EMEM (SW480 and SW620), RPMI 1640 (PC3) or DMEM High Glucose (HepG2, MDA, A549, and HaCaT) with stable glutamine supplemented with 10% heat-inactivated fetal bovine serum (FBS), penicillin (100 U/mL), and streptomycin (100 µg/mL) in 37 °C and 5% CO2/95% air humified incubator. The cells were grown until 80–90% confluence and then were harvested with 0.25% trypsin and used for the experiments. All the reagents for the cell culture were provided by VWR Chemicals.
(§2) Cytotoxicity was tested with the sulforhodamine B (SRB) assay according to the National Cancer Institute protocol with slight modifications. Briefly, cells were seeded on a 96-well plate (5 × 10^3 cells per well). After 24 h incubation, zero-time control cells were fixed with TCA (final concentration 5%) for 1 h at 4 °C. […] The untreated cells were used as the control. After incubation, the cells were fixed with TCA (final concentration 5%) for 1 h at 4 °C, gently washed 4 times with tap water, and left for drying. The dried fixed cells were incubated with SRB solution (0.05% SRB in 1% acetic acid) for 30 min rt, washed four times with 1% acetic acid, and left for drying. The dried cells were dissolved in 10 mM Tris-base solution (pH 10.5) and the absorbance was read at 510 nm.
(§3) The cell viability was presented as a percent of SRB reduction in the treated cells versus that in control cells. The mean absorbance for control cells was assumed as 100%. No-cell control (blank well) absorbance was assumed as 0%, unless the compound was cytostatic, then 0% referred to zero-time control. The IC50 values were calculated using the GraphPad Prism 10.1.2 (324) (USA) software. The most cytotoxic compounds (8 and 20) were selected for further in vitro experiments.
On the technique in general: The SRB assay estimates cell density from bound dye.

The test system of data set [2] is SW620 (metastatic colon cancer) cells. Kind of data set: SRB cytotoxicity assay, SW620. To be noted: Homo sapiens, SW-620; SRB assay, 48 h culture, mean ± SD, at least three independent experiments; compounds marked * : low solubility, real values might be lower; read-out: Cytotoxicity IC50, SW620. Type of data set: cell-based. As for the experimental part:
as §1, §2, §3

In data set [3] the test system is PC3 (prostate cancer) cells. Kind of data set: SRB cytotoxicity assay, PC3. Type of data set: cell-based. The settings on record: Homo sapiens; SRB assay, 48 h culture, mean ± SD, at least three independent experiments; compounds marked * : low solubility, real values might be lower; read-out: Cytotoxicity IC50, PC3. As for the experimental part: as §1, §2, §3
Data set [4] relates to HepG2 (liver cancer) cells. As to the kind of experiment: SRB cytotoxicity assay, HepG2. Type of data set: cell-based. The settings on record: Homo sapiens, HepG2; SRB assay, 48 h culture, mean ± SD, at least three independent experiments; compounds marked * : low solubility, real values might be lower; read-out: Cytotoxicity IC50, HepG2. The protocol:
as §1, §2, §3

The test system of data set [5] is MDA (breast cancer) cells. As to the kind of experiment: SRB cytotoxicity assay, MDA. Type of data set: cell-based. The settings on record: Homo sapiens; SRB assay, 48 h culture, mean ± SD, at least three independent experiments; compounds marked * : low solubility, real values might be lower; read-out: Cytotoxicity IC50, MDA. As for the experimental part: as §1, §2, §3

For the next data set, the system named is A549 (lung cancer) cells. As to the kind of experiment: SRB cytotoxicity assay, A549. The data set is classed as cell-based. To be noted: Homo sapiens, A549; SRB assay, 48 h culture, mean ± SD, at least three independent experiments; compounds marked * : low solubility, real values might be lower; read-out: Cytotoxicity IC50, A549. The protocol: as §1, §2, §3

The nature of data set [6]: SRB cytotoxicity assay, HaCaT. Type of data set: cell-based. The settings on record: human, 48 h culture, mean ± SD, at least three independent experiments, compounds marked * : low solubility, real values might be lower. The protocol: as §1, §2, §3
Data set [7] concerns six human cancer cell lines (SW480, SW620, PC3, HepG2, MDA, A549) and HaCaT. Kind of data set: SRB cytotoxicity assay, whole panel. Type of data set: cell-based. The settings on record: for Cytotoxicity (in words): cell line panel; for IC50: Homo sapiens, depending on the compound and cell line, read-out: IC50 over the cell line panel. As for the experimental part:
The antiproliferative properties of the studied combretastatin derivatives were tested on six human cancer cell lines, including primary colon (SW480), metastatic colon (SW620), prostate (PC3), liver (HepG2), breast (MDA), and lung (A549) cancer cells, and non-tumor human immortalized keratinocyte cell line (HaCaT) using the sulforhodamine B (SRB) assay. […] No selectivity was observed against the tumor cell lines when compared to that against the non-tumor cell line. Nevertheless, these values were much higher than the IC50 of the reference compounds (<0.2 μM).
as §1, §2, §3

On the set-up of data set [8]: method as in earlier work. The settings on record: in contrast to the original compound; cited from earlier work.
Another data set deals with HaCaT cells. As to the kind of experiment: Cell cycle analysis (PI, flow cytometry), HaCaT. The data set is classed as cell-based, human. To be noted: 24 h treatment; for Cell cycle phase arrest (ratio G2/M to G0/G1): 1.5 and 2 nM CA4, 25, 30, 40 mM 8, 15, 20, 30 mM 20. As for the experimental part: (§4) The cell cycle was assessed for the compounds 8 and 20 and the combretastatin CA4 as a reference compound. The compounds were most cytotoxic to the MDA and A549 cancerous cell lines; thus, these cell lines were selected for further analyses. The HaCaT cell line was chosen to represent non-cancer cells. For the experiment, the cells were seeded on 6-well plates (5 × 10^4 cells per well). After 24 h of incubation, the cells were treated with the compounds in selected concentrations (1.5 and 2 nM for CA4; […]) and incubated for the next 24 h. Then, the cells were detached with 0.25% trypsin, washed with 0.9% NaCl, and fixed with 70% ethanol at 4 °C for at least 16 h. For drying, the cells were washed twice with 0.9% NaCl, resuspended in 50 μg/mL propidium iodide (PI) and 100 μg/mL RNase in PBS and incubated for 30 min at 37 °C. The cell cycle distribution was analyzed by flow cytometer (FACS Verse, Becton, Dickinson and Company, Franklin Lakes, NJ, USA).
For orientation: In flow cytometry, cells or beads pass a laser one at a time.

Another data set has as its system MDA cells. As to the kind of experiment: Cell cycle analysis (PI, flow cytometry), MDA. The settings on record: 24 h treatment; for Cell cycle phase arrest (ratio G2/M to G0/G1): 1.5 and 2 nM CA4, 25, 30, 40 mM 8, 15, 20, 30 mM 20. Type of data set: cell-based, human. As for the experimental part:
as §4

The subject of the next data set is A549 cells. As to the kind of experiment: Cell cycle analysis (PI, flow cytometry), A549. To be noted: A549, 24 h treatment; for Cell cycle phase arrest (ratio G2/M to G0/G1): 1.5 and 2 nM CA4, 25, 30, 40 mM 8, 15, 20, 30 mM 20. The data set is classed as cell-based, human. As for the experimental part:
as §4

The subject of the next data set is tubulin. As to the kind of experiment: In vitro tubulin polymerization (turbidometry at 340 nm, BK004P kit). Type of data set: biochemical, porcine. The settings on record: for Concentration dependence of the acceleration of tubulin polymerization: 20 and 100 μM; for Effect on in vitro tubulin polymerization: 37 °C, 60 min, absorbance 340 nm, CA-4 5 μM, colchicine 5 μM, compounds 8 and 20 at 20 or 100 μM. As for the experimental part: The kinetics of microtubule assembly was assessed by measuring absorbance at 340 nm over time.
The assembly of purified bovine tubulin was monitored using a BK004P kit, purchased from Cytoskeleton Inc. (Denver, CO, USA). The assay was performed according to the manufacturer’s instructions using the standard assay conditions. […] Light was scattered proportionally to the concentration of the polymerized microtubules in the assay. Then, the tubulin assembly was monitored by turbidometry at 340 nm in a MultiscanGo spectrophotometer (ThermoFisher Scientific, Carlsbad, CA, USA) for 60 min. The time dependence of the tubulin polymerization was presented in the form of graphs prepared in the GraphPad Prism 8.4.3.686 (Boston, MA, USA) software.

Setting [9] is: HaCaT immortalized keratinocyte cells (non-tumor cell line).

Turning to `COc1ccc(/C(=C\c2cc(OC)c(OC)c(OC)c2)C(=O)O)cc1Br` [Compound 3], the IC50 (in [1]; in [2]; in [3]; in data set [4]; in data set [5]; in the data set with A549 (lung cancer) cells) was more than 100 µM throughout. The concentration for half-maximal inhibition (IC50) at 48 h in data set [6] (setting [9]) was more than 100 µM. Besides, the “Cytotoxicity (in words)” value in [7] is on record as “does not have any anticancer potential”.

Take `COc1ccc(/C=C\c2cc(OC)c(OC)c(OC)c2)cc1OP(=O)(O)O` [Combretastatin A4 phosphate, combretastatin A-4 disodium phosphate]: the Water solubility result in data set [8] is “water-soluble”.

For `COc1ccc(/C(=C\c2cc(OC)c(OC)c(OC)c2)C(=O)OCCCCBr)cc1Br` [Compound 8], the IC50 is 32.7 ± 6.7 µM in data set [1]; 24.2 ± 8.4 µM in data set [2]; 31 ± 5.5 µM in data set [3]; 25.5 ± 6.3 µM in data set [4]; 23.1 ± 7.7 µM in data set [5]; 19.6 ± 2 µM in the data set on A549 (lung cancer) cells. In data set [7], the half-inhibitory concentration (IC50) fell in the range of 18.8 to 32.7 µM. In addition, half-maximal inhibition in data set [6] (setting [9]) (IC50 at 48 h) required 23.9 ± 3.9 µM. The “DNA fragmentation (subG1 phase)” value in the data set on HaCaT cells was “appearance of the subG1 phase was observed”; in the data set on MDA cells, “statistically significant differences between subG1 populations were observed”; with A549 cells, “certain differences were noted”. The “Cell cycle phase arrest (ratio G2/M to G0/G1)” value with HaCaT cells is recorded as “G0/G1 phase arrest”; with MDA cells it was “not observed”; with A549 cells it was “G0/G1 phase arrest”. Moreover, the “Concentration dependence of the acceleration of tubulin polymerization” value in the data set on tubulin is listed as “concentration-dependent”. For the same compound, the “Effect on in vitro tubulin polymerization” value (from here on “Effect”) in the data set with tubulin was “enhanced tubulin polymerization”.

As for `COc1ccc(/C(=C\c2cc(OC)c(OC)c(OC)c2)C(=O)OCCCCCCBr)cc1Br` [Compound 9], the half-maximal inhibitory concentration (IC50) (in data set [1]; in data set [2]; in [3]; in data set [4]; in [5]; in the data set on A549 (lung cancer) cells) was more than 100 µM in each case. Moreover, in data set [6] (setting [9]), the half-maximal inhibitory concentration (IC50) at 48 h was more than 100 µM. In data set [7], the “Cytotoxicity (in words)” value is “did not show any cytotoxicity”.

Regarding `COc1ccc(/C=C\c2cc(OC)c(OC)c(OC)c2)cc1O` [CA4, combretastatin A-4], the IC50 in data set [1] was 0.00281 ± 0.00017 µM; in data set [2] it was 0.00221 ± 0.00088 µM; in [3], 0.0021 ± 0.00026 µM; in data set [4], 0.00158 ± 0.00019 µM; in data set [5] it was 0.00372 ± 0.00027 µM; in the data set with A549 (lung cancer) cells it was 0.00343 ± 0.00096 µM. This compound also came in with an IC50 at 48 h in data set [6] (non-tumor cell line) of 0.00427 ± 0.00047 µM. Also, the “DNA fragmentation (subG1 phase)” value in the data set on HaCaT cells was “appearance of the subG1 phase was observed”; in the data set on MDA cells it was “statistically significant differences between subG1 populations were observed”. In addition, the entries for the “Cell cycle phase arrest (ratio G2/M to G0/G1)” value in the data set on HaCaT cells, in the data set on MDA cells and with A549 cells were “G2 phase arrest”, “no statistically significant differences” and “no statistically significant differences”, respectively. Besides, the “Effect” value in the data set on tubulin is listed as “inhibited tubulin polymerization”.

`CCCN(CCC)C(=O)/C(=C/c1cc(OC)c(OC)c(OC)c1)c1ccc(OC)c(Br)c1` [Compound 19]: the IC50 (in data set [1]; in data set [2]; in data set [3]; in data set [4]; in data set [5]; with A549 (lung cancer) cells) was more than 100 µM each time. In addition, the 50% inhibitory concentration (IC50) at 48 h in [6] (setting [9]) was more than 100 µM. The “Cytotoxicity (in words)” value in [7] is recorded as “did not show any cytotoxicity”.

Turning to `CCCCN(CCCC)C(=O)/C(=C/c1cc(OC)c(OC)c(OC)c1)c1ccc(OC)c(Br)c1` [Compound 20], the concentration for half-maximal inhibition (IC50) amounted to 18.8 ± 0.8 µM in [1]; 20.9 ± 2.9 µM in data set [2]; 23.7 ± 10.3 µM in data set [3]; 25.8 ± 9.6 µM in data set [4]; 19 ± 7.1 µM in data set [5]; 19.4 ± 2.2 µM in the data set on A549 (lung cancer) cells. In addition, in [7], the half-inhibitory concentration (IC50) was in the range of 18.8 to 32.7 µM. Moreover, in [6] (setting [9]), inhibition was half-maximal at 20.5 ± 9.7 µM (IC50 at 48 h). The “DNA fragmentation (subG1 phase)” value with HaCaT cells is “appearance of the subG1 phase was observed”; with A549 cells, “certain differences were noted”. Besides, the “Cell cycle phase arrest (ratio G2/M to G0/G1)” value with HaCaT cells, in the data set with MDA cells and with A549 cells was “G0/G1 phase arrest” throughout. Also, the “Concentration dependence of the acceleration of tubulin polymerization” value in the data set with tubulin is recorded as “on a similar level”. Also, the “Effect” value in the data set on tubulin was “enhanced tubulin polymerization”.
